Data as given in patent US9725469B2, “Amino-oxazine and amino-dihydrothiazine compounds as beta-secretase modulators and methods of use” (Amgen Inc., priority 2012, dated 2017).

Experiments:
Cathepsin D = biological target: T1, Cathepsin D (Homo sapiens, UniProt P07339); assay: In vitro enzymatic Cat D (Cathepsin D) FRET assay; format: biochemical; conditions: average IC50, pH 3.5
T1 construct: made in house; host or cells: CHO cells
Method: In Vitro Enzymatic Cat D (Cathepsin D) FRET (Fluorescence Resonance Energy Transfer) Assay
Recombinant CathepsinD was expressed in CHO cells. The assay buffer for CathepsinD is 0.05 M citrate pH 3.5, 10% DMSO final, 5 mM CHAPS. The CathepsinD enzyme (9 nM) is pre-incubated for one hour with inhibitors, typically in about 1 uL of DMSO according to a serial dilution, is added thereto. The assays are effectively started by the addition of different FRET substrates (20 nM for CathepsinD) and the combination is incubated for one hour. The FRET assay is terminated with by addition of Tris buffer, which raises the pH to neutrality, and the fluorescence is determined. The FRET substrate is a peptide with commercially available fluorophore and quencher, on opposite sides of the BACE cleavage site. The CathepsinD substrate peptide sequence is based on sequence #1 of Table 1 from Gulnik et al. FEBS Letters v413 p 379-384 1997. Proteolytic cleavage of the FRET substrate releases quenching of fluorescence (CathepsinD excitation 500 nm and emission 580 nm). […]

[1] = biological target: BACE 1 (beta secretase enzyme) (Homo sapiens, UniProt P56817); assay: In vitro enzymatic BACE FRET assay; format: biochemical; conditions: average IC50, pH 4.2
Sequence of BACE 1 (beta secretase enzyme) (P56817 46-501): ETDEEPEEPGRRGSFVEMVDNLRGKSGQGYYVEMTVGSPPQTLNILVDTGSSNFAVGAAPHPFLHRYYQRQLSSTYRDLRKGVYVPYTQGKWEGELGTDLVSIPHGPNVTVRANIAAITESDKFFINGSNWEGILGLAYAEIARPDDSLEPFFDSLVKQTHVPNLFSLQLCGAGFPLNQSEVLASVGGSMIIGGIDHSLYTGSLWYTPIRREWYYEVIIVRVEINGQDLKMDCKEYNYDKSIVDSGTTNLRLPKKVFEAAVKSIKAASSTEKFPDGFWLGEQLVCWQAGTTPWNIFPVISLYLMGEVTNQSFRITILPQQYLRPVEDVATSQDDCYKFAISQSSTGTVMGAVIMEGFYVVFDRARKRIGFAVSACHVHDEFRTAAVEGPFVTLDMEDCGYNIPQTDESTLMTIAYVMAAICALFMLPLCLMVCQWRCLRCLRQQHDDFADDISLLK
Method: In Vitro Enzymatic BACE FRET (Fluorescence Resonance Energy Transfer) Assay
The assay buffer used in this screen is 0.05 M acetate, pH 4.2, 10% DMSO final, 100 uM genapol (which is a nonionic detergent, below its Critical Micelle Concentration). The beta secretase enzyme (0.2 nM) is pre-incubated for one hour with inhibitors, typically in about 1 uL of DMSO according to a serial dilution, are added thereto. This assay is effectively started by the addition of FRET substrate (50 nM) and the combination is incubated for one hour. The FRET assay is terminated with by addition of Tris buffer, which raises the pH to neutrality, and the fluorescence is determined. The FRET substrate is a peptide with commercially available fluorophore and quencher, on opposite sides of the BACE cleavage site. Proteolytic cleavage of the FRET substrate releases quenching of fluorescence (excitation […] and […]).

[2] = tested on: Aβ40 in conditioned medium of cells stably expressing Amyloid Precursor Protein (APP); assay: In vitro BACE cell-based assay (HEK cell assay, Aβ40 sandwich ELISA); conditions: average IC50, Aβ40, 24 h incubation
Method: In Vitro BACE Cell-Based Assay
The cell-based assay measures inhibition or reduction of Aβ40 in conditioned medium of test compound treated cells expressing amyloid precursor protein.
Cells stably expressing Amyloid Precursor Protein (APP) were plated at a density of 40K cells/well in 96 well plates (Costar). The cells were cultivated for 24 hours at 37° C. and 5% CO2 in DMEM supplemented with 10% FBS. The test compounds were then added to cells in 10-point dose response concentrations with the starting concentration being either 100 μM or 10 μM. The compounds were diluted from stock solutions in DMSO and the final DMSO concentration of the test compounds on cells was 0.1%. After 24 h of incubation with the test compounds the supernatant conditioned media was collected and the Aβ 40 levels were determined using a sandwich ELISA. The IC50 of the compound was calculated from the percent of control or percent inhibition of Aβ 40 as a function of the concentration of the test compound.
The sandwich ELISA to detect Aβ 40 was performed in 96 well microtiter plates, which were pre-treated with goat anti-rabbit IgG (Pierce). The capture and detecting antibody pair that were used to detect Aβ 40 from cell supernatants were affinity purified pAb40 (Biosource) and biotinylated 6E10 (Signet Labs Inc.), respectively. The optimal concentration for the pAb40 antibody was 3 μg/ml in Superblock/TBS (Pierce) that was supplemented with 0.05% Tween 20 (Sigma). Optimal concentration for the detection antibody 6E10-biotinylated was 0.5 μg/ml in Superblock/TBS (Pierce) that had been supplemented with 2% normal goat serum and 2% normal mouse serum.
Cellular supernatants were incubated with the capture antibody for 3 h at 4° C., followed by 3 wash steps in TBS-tween (0.05%). The detecting antibody incubation was for 2 h at 4° C., again followed by the wash steps as described previously. The final readout of the ELISA is Time-Resolved Fluorescence (counts per minute) using Delfia reagents Streptavidin-Europium and Enhancement solutions (Perkin Elmer) and the Victor 2 multilabel counter (Perkin Elmer).

Abeta 40 = assay: In vivo inhibition of beta-secretase: Abeta 40 reduction in rat CSF and brain; conditions: after 4 hrs; for % reduction of rat CSF Abeta 40 levels at 10 mpk: Abeta 40, rat CSF; for % reduction of rat brain levels at 10 mpk: Abeta 40, rat brain
Excerpt: In Vivo Inhibition of Beta-Secretase
Several animal models, including mouse, rat, dog, and monkey, may be used to screen for inhibition of beta-secretase activity in vivo following administration of a test compound sample. Animals used in this invention can be wild type, transgenic, or gene knockout animals. For example, the Tg2576 mouse model, prepared and conducted as described in Hsiao et al., 1996, Science 274, 99-102, and other non-transgenic or gene knockout animals are useful to analyze in vivo inhibition of Amyloid beta peptide (Abeta) production in the presence of inhibitory test compounds. Generally, 2 to 18 month old Tg2576 mice, gene knockout mice or non-transgenic animals are administered test compounds formulated in vehicles, such as cyclodextran, phosphate buffers, hydroxypropyl methylcellulose or other suitable vehicles. One to twenty-four hours following the administration of compound, animals are sacrificed, and brains as well as cerebrospinal fluid (CSF) and plasma are removed for analysis of A-beta levels and drug or test compound concentrations (Dovey et al., 2001, Journal of Neurochemistry, 76, 173-181) Beginning at time 0, animals are administered by oral gavage, or other means of delivery such as intravenous injection, an inhibitory test compound of up to 100 mg/kg in a standard, conventional formulation, such as 2% hydroxypropyl methylcellulose, 1% Tween80. A separate group of animals receive 2% hydroxypropyl methylcellulose, 1% Tween80 alone, containing no test compound, and serve as a vehicle-control group. At the end of the test period, animals are sacrificed and brain tissues, plasma or cerebrospinal fluid are collected. Brains are either homogenized in 10 volumes (w/v) of 0.2% diethylamine (DEA) in 50 mM NaCl (Best et al., 2005, Journal of Pharmacology and Experimental Therapeutics, 313, 902-908), or in 10 volumes of 0.5% TritonX-100 in Tris-buffered saline (pH at about 7.6). Homogenates are centrifuged at 355,000 g, 4° C. for 30 minutes. CSF or brain supernatants are then analyzed for the presence of A-beta peptide by specific sandwich ELISA assays based on ECL (Electrochemiluminescence) technology. For example, rat Abeta40 is measured using biotinylated-4G8 (Signet) as a capture antibody and Fab40 (an in-house antibody specific to the C-terminal of Abeta40) as a detection antibody. For example, 4 hours after administration of 30 mg/kg oral dose of the test compound in 2% hydroxypropyl methylcellulose, 1% Tween80 (pH2.2) to 200 g male Sprague Dawley rats, amyloid beta peptide levels are measured for reduction by X % and Y % in cerebrospinal fluid and brain, respectively, when compared to the levels measured in the vehicle-treated rats.
Actual vehicles used: Oral: 2% HPMC, 1% Tween80, pH 2.2
The compounds of the invention may be shown to reduce the formation and/or deposition of amyloid beta peptide in the cerebrospinal fluid (CSF) as well as in the brain of a mouse or rat at either 3 mpk, 10 mpk or 30 mpk (mpk=mg compound per kg weight of the animal) dosing concentrations after 4 hrs.

T1 sequence (P07339 65-412, species assumed): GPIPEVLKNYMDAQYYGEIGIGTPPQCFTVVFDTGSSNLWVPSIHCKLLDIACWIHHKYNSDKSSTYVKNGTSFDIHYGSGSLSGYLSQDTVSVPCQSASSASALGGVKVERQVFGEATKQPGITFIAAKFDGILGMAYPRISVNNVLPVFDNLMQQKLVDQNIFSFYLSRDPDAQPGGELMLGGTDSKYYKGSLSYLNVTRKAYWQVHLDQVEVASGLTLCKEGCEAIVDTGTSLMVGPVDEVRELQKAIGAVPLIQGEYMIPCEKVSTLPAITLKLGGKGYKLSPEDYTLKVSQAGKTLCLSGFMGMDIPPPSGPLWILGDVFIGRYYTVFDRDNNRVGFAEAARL

Structure (SMILES)	IC50 (Cathepsin D)	IC50 [1]	IC50 ([2]; Homo sapiens, HEK293)	% reduction of rat CSF Abeta 40 levels at 10 mpk (Abeta 40)	% reduction of rat brain levels at 10 mpk (Abeta 40)	IC50 [2]
COc1cnc2c(Nc3ccc4c(c3)[C@@]3(CCSC(N)=N3)c3cc(C5=CCCOC5)nc(F)c3O4)nccc2c1 [Example 31, (5S)-3-(5,6-dihydro-2H-pyran-3-yl)-1-fluoro-N~7~-(3-methoxy-1,7-naphthyridin-8-yl)-5′,6′-dihydrospiro[chromeno[2,3-c]pyridine-5,4′-[1,3]thiazine]-2′,7-diamine]	313 µM	4.3 nM	5.3 nM	–	–	–
COc1cnc2c(Nc3ccc4c(c3)[C@@]3(CCSC(N)=N3)c3cc(C5=CCOCC5)nc(F)c3O4)nccc2c1 [Example 32, (5S)-3-(3,6-dihydro-2H-pyran-4-yl)-1-fluoro-N~7~-(3-methoxy-1,7-naphthyridin-8-yl)-5′,6′-dihydrospiro[chromeno[2,3-c]pyridine-5,4′-[1,3]thiazine]-2′,7-diamine]	373 µM	4.4 nM	3.3 nM	71%	47%	–
COc1cnc2c(Nc3ccc4c(c3)[C@@]3(CCOC(N)=N3)c3cc(C5=CCOCC5)ncc3O4)ccnc2c1 [Example 33]	–	19.4 nM	–	–	–	0.4 nM
COc1cnc2c(Nc3ccc4c(c3)[C@@]3(CCSC(N)=N3)c3cc(C5=CCCOC5)ncc3O4)nccc2c1 [Example 34, (5S)-3-(5,6-dihydro-2H-pyran-3-yl)-N~7~-(3-methoxy-1,7-naphthyridin-8-yl)-5′,6′-dihydrospiro[chromeno[2,3-c]pyridine-5,4′-[1,3]thiazine]-2′,7-diamine]	336 µM	13.2 nM	5.4 nM	44%	5%	–
COc1cnc2c(Nc3ccc4c(c3)[C@@]3(CCOC(N)=N3)c3cc(Cl)nc(F)c3O4)nccc2c1 [Example 35, (5S)-3-chloro-1-fluoro-N-~7~-(3-methoxy-1,7-naphthyridin-8-yl)-5′,6′-dihydrospiro[chromeno[2,3-c]pyridine-5,4′-[1,3]oxazine]-2′,7-diamine]	400 µM	97.2 nM	35.3 nM	–	–	–
COc1cnc2c(Nc3ccc4c(c3)[C@@]3(CCOC(N)=N3)c3cc(C(C)C)ncc3O4)nccc2c1 [Example 36, (5S)-N~7~-(3-methoxy-1,7-naphthyridin-8-yl)-3-(1-methylethyl)-5′,6′-dihydrospiro[chromeno[2,3-c]pyridine-5,4′-[l,3]oxazine]-2′,7-diamine]	133 µM	11.3 nM	2.7 nM	58%	19%	–
COc1cnc2c(Nc3ccc4c(c3)[C@@]3(CCSC(N)=N3)c3cc(-c5ccnc(F)c5)nc(F)c3O4)nccc2c1 [Example 39, (5S)-1-fluoro-3-(2-fluoro-4-pyridinyl)-N~7~-(3-methoxy-1,7-naphthyridin-8-yl)-5′,6′-dihydrospiro[chromeno[2,3-c]pyridine-5,4′-[1,3]thiazine]-2′,7-diamine]	338 µM	3.2 nM	12.3 nM	–	–	–
COc1cnc2c(Nc3ccc4c(c3)[C@@]3(CCSC(N)=N3)c3cc(-c5ccnc(OC(C)C)c5)nc(F)c3O4)nccc2c1 [Example 40, (5S)-1-fluoro-N~7~-(3-methoxy-1,7-naphthyridin-8-yl)-3-(2-(1-methylethoxy)-4-pyridinyl)-5′,6′-dihydrospiro[chromeno[2,3-c]pyridine-5,4′-[1,3]thiazine]-2′,7-diamine]	400 µM	15.6 nM	138 nM	–	–	–
COc1cnc2c(Nc3ccc4c(c3)[C@@]3(CCSC(N)=N3)c3cc(-c5cncc(F)c5)nc(F)c3O4)nccc2c1 [Example 41, (5S)-1-fluoro-3-(5-fluoro-3-pyridinyl)-N~7~-(3-methoxy-1,7-naphthyridin-8-yl)-5′,6′-dihydrospiro[chromeno[2,3-c]pyridine-5,4′-[1,3]thiazine]-2′,7-diamine]	400 µM	3.2 nM	16 nM	–	–	–
COc1cnc2c(Nc3ccc4c(c3)[C@@]3(CCOC(N)=N3)c3cc(C5CC5)ncc3O4)nccc2n1 [Example 42, (5S)-3-cyclopropyl-N~7~-(2-methoxypyrido[3,4-b]pyrazin-5-yl)-5′,6′-dihydrospiro[chromeno[2,3-c]pyridine-5,4′-[1,3]oxazine]-2′,7-diamine]	400 µM	6.9 nM	2.6 nM	–	–	–
COc1cnc2c(Nc3ccc4c(c3)[C@@]3(CCOC(N)=N3)c3cc(C5=CCOCC5)ncc3O4)nccc2c1 [Example 43, (5S)-3-(3,6-dihydro-2H-pyran-4-yl)-N~7~-(3-methoxy-1,7-naphthyridin-8-yl)-5′,6′-dihydrospiro[chromeno[2,3-c]pyridine-5,4′-[1,3]oxazine]-2′,7-diamine]	400 µM	14.8 nM	2.6 nM	–	–	–
Cc1nc2c(Nc3ccc4c(c3)[C@@]3(CCOC(N)=N3)c3cc(C5=CCOCC5)ncc3O4)nccc2s1 [Example 44, (5S)-3-(3,6-dihydro-2H-pyran-4-yl)-N~7~-(2-methyl[1,3]thiazolo[4,5-c]pyridin-4-yl)-5′,6′-dihydrospiro[chromeno[2,3-c]pyridine-5,4′-[1,3]oxazine]-2′,7-diamine]	400 µM	5.3 nM	4.1 nM	–	–	–
